Source: patent US6589970B2, “6-(aryl-amido or aryl-amidomethyl)-naphthalen-2-yloxy-acidic derivatives as inhibitors of plasminogen activator inhibitor type-1 (PAI-1)” (Wyeth, priority 2001, dated 2003)
Where a name gives a salt, the structure may show the parent alone.

What was measured:
human PAI-1 = human PAI-1 (Homo sapiens, UniProt P05121); assay: Assay for Determining IC50 of Inhibition of PAI-1 (Antibody Assay); format: biochemical; conditions: active PAI-1 bound to tPA-coated plate
Description: This assay is based upon the non-SDS dissociable interaction between tPA and active PAI-1. Assay plates are initially coated with human tPA (10 μg/ml). The test compounds are dissolved in DMSO at 10 mM, then diluted with physiologic buffer (pH 7.5) to a final concentration of 1-50 μM. The test compounds are incubated with human PAI-1 (50 ng/ml) for 15 minutes at room temperature. The tPA-coated plate is washed with a solution of 0.05% Tween 20 and 0.1% BSA, then the plate is blocked with a solution of 3% BSA. An aliquot of the test compound/PAI-1 solution is then added to the tPA-coated plate, incubated at room temperature for 1 hour, and washed. Active PAI-1 bound to the plate is assessed by adding an aliquot of a 1:1000 dilution of the 33B8 monoclonal antibody against human PAI-1, and incubating the plate at room temperature for 1 hour (Molecular Innovations, Royal Oak, Mich. The plate is again washed, and a solution of goat anti-mouse IgG-alkaline phosphatase conjugate is added at a 1:50,000 dilution in goat serum. The plate is incubated 30 minutes at room temperature, washed, and a solution of alkaline phosphatase substrate is added. The plate is incubated 45 minutes at room temperature, and color development is determined at OD405nm. The quantitation of active PAI-1 bound to tPA at varying concentrations of the test compound is used to determine the IC50. Results are analyzed using a logarithmic best-fit equation. The assay sensitivity is 5 ng/ml of human PAI-1 as determined from a standard curve ranging from 0-100 ng/ml.

[1] = target: T1, recombinant human plasminogen activator inhibitor-1 (PAI-1) (Homo sapiens, UniProt P05121); assay: Primary Screen for the PAI-1 Inhibition; format: biochemical; conditions: for inhibition at 25 µM: 25 μM test compound, read-out: % Inhib. 25 μM; for inhibition at 100 µM: 100 μM test compound, read-out: % Inhib. 100 μM
T1 construct: purchased Molecular Innovations, Royal Oak, Mich
Description: (§1) Test compounds are dissolved in DMSO at a final concentration of 10 mM, then diluted 100× in physiologic buffer. The inhibitory assay is initiated by the addition of the test compound (1-100 μM final concentration, maximum DMSO concentration of 0.2%) in a pH 6.6 buffer containing 140 nM recombinant human plasminogen activator inhibitor-1 (PAI-1; Molecular Innovations, Royal Oak, Mich.). Following a 1 hour incubation at room temperature, 70 nM of recombinant human tissue plasminogen activator (tPA) is added, and the combination of the test compound, PAI-1 and tPA is incubated for an additional 30 minutes. Following the second incubation, Spectrozyme-tPA (American Diagnostica, Greenwich, Conn.), a chromogenic substrate for tPA, is added and absorbance read at 405 nm at 0 and 60 minutes. Relative PAI-1 inhibition is equal to the residual tPA activity in the presence of the test compound and PAI-1. Control treatments include the complete inhibition of tPA by PAI-1 at the molar ratio employed (2:1), and the absence of any effect of the test compound on tPA alone.

[2] = target: T1, recombinant human plasminogen activator inhibitor-1 (PAI-1); assay: Modification of the Primary Screen for the PAI-1 Inhibition (IC50); format: biochemical
Description: as §1

T1 sequence (P05121 24-402): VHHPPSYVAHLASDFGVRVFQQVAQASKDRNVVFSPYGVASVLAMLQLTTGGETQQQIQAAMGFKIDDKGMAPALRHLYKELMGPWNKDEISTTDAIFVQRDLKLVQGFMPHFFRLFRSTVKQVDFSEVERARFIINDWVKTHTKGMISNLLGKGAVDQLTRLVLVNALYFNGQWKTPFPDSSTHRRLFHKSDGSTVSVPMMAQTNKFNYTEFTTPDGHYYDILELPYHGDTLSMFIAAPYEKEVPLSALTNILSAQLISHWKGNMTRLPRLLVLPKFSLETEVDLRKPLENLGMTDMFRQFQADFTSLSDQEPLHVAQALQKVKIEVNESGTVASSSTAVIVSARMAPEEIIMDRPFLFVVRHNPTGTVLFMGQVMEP
Sequence of human PAI-1 (P05121 24-402): as above

Row | IC50 (human PAI-1) [µM] | inhibition at 25 µM [1] [%] | inhibition at 100 µM [1] [%] | melting point [°C] | IC50 [2] [µM] | SMILES
1 | 20.8 | 44 | 81 | 204 to 206 |  | CCCCN(Cc1ccc2c(Br)c(OCc3nnn[nH]3)ccc2c1)C(=O)c1c(C)oc2ccccc12 [Example 52, 2-Methyl-benzofuran-3-carboxylic acid [5-bromo-6-(1H-tetrazol-5-ylmethoxy)-naphthalen-2-ylmethyl]-butyl-amide]
2 | 20 | 54 | 84 |  |  | CCCCc1oc2ccccc2c1C(=O)N(Cc1ccccc1)Cc1ccc2c(Br)c(OC(Cc3ccccc3)C(=O)O)ccc2c1 (stereo not shown) [Example 68, 2-(6-{[Benzyl-(2-butyl-benzofuran-3-carbonyl)-amino]-methyl}-1-bromo-naphthalen-2-yloxy)-3-phenyl-propionic acid]
3 |  | 18 | 80 |  | 11.8 | CCCc1c(C(=O)NCc2ccc3c(Br)c(OC(Cc4ccccc4)C(=O)O)ccc3c2)cnn1-c1ccccc1 (stereo not shown) [Example 54, 2-(1-Bromo-6-{[(1-phenyl-5-propyl-1H-pyrazole-4-carbonyl)-amino]-methyl}-naphthalen-2-yloxy)-3-phenyl-propionic acid]
4 |  | 13 | 71 |  | 22.9 | CCCCc1oc2ccccc2c1C(=O)NCc1ccc2cc(OCc3nnn[nH]3)ccc2c1 [Example 8, 2-Butyl-benzofuran-3-carboxylic acid [6-(1H-tetrazol-5-ylmethoxy)-naphthalen-2-ylmethyl]-amide sodium salt]
5 | 16.8 | 55 | 92 |  |  | CC(C)(C)c1cc(C(=O)N(Cc2ccccc2)Cc2ccc3c(Br)c(OC(Cc4ccccc4)C(=O)O)ccc3c2)cc(C(C)(C)C)c1 (stereo not shown) [Example 69, 2-(6-{[Benzyl-(3,5-di-tert-butyl-benzoyl)-amino]-methyl}-1-bromo-naphthalen-2-yloxy)-3-phenyl-propionic acid]
6 | 20.6 | 52 | 96 | 227 to 228 |  | CN(Cc1ccc2c(Br)c(OCc3nnn[nH]3)ccc2c1)C(=O)c1cn(C)c2ccccc12 [Example 37, 1-Methyl-1H-indole-3-carboxylic acid [5-bromo-6-(1H-tetrazol-5-ylmethoxy)-naphthalen-2-ylmethyl]-methyl-amide]
7 |  | 43 | 67 |  | 18.3 | CCCCc1oc2ccccc2c1C(=O)Nc1ccc2c(Br)c(OCC(=O)O)ccc2c1 [Example 6, {1-Bromo-6-[(2-butyl-benzofuran-3-carbonyl)-amino]-naphthalen-2-yloxy}-acetic acid sodium salt]
8 | 25.9 | 1 | 70 |  |  | CCc1oc2ccccc2c1C(=O)N(C)Cc1ccc2c(Br)c(OCc3nnn[nH]3)ccc2c1 [Example 32, 2-Ethyl-benzofuran-3-carboxylic acid [5-bromo-6-(1H-tetrazol-5-ylmethoxy)-naphthalen-2-ylmethyl]-methyl-amide]
9 | 19.3 | 34 | 81 | 197 to 198 |  | CN(Cc1ccc2c(Br)c(OCc3nnn[nH]3)ccc2c1)C(=O)c1cn(Cc2ccccc2)c2ccccc12 [Example 34, 1-Benzyl-1H-indole-3-carboxylic acid [5-bromo-6-(1H-tetrazol-5-ylmethoxy)-naphthalen-2-ylmethyl]-methyl-amide]
10 | 15.8 | 26 | 58 | 242 to 244 |  | Cc1oc2ccccc2c1C(=O)NCc1ccc2c(Br)c(OCc3nnn[nH]3)ccc2c1 [Example 20, 2-Methyl-benzofuran-3-carboxylic acid [5-bromo-6-(1H-tetrazol-5-ylmethoxy)-naphthalen-2-ylmethyl]-amide]
11 |  | 7 | 53 |  | 25.2 | Cc1oc(-c2ccc(Cl)cc2)cc1C(=O)NCc1ccc2cc(OCC(=O)O)ccc2c1 [Example 10, [6-({[5-(4-Chloro-phenyl)-2-methyl-furan-3-carbonyl]-amino}-methyl)-naphthalen-2-yloxy]-acetic acid]
12 | 6.92 | 54 | 72 |  |  | Cc1oc2ccccc2c1C(=O)N(Cc1ccccc1)Cc1ccc2c(Br)c(OCc3nnn[nH]3)ccc2c1 [Example 49, 2-Methyl-benzofuran-3-carboxylic acid benzyl-[5-bromo-6-(1H-tetrazol-5-ylmethoxy)-naphthalen-2-ylmethyl]-amide]
13 | 35.7 | 56 | 61 |  |  | CCc1oc2ccccc2c1C(=O)N(Cc1ccccc1)Cc1ccc2c(Br)c(OCc3nnn[nH]3)ccc2c1 [Example 50, 2-Ethyl-benzofuran-3-carboxylic acid benzyl-[5-bromo-6-(1H-tetrazol-5ylmethoxy)-naphthalen-2-ylmethyl)-amide]
14 |  | 23 | 100 |  | 8.5 | CCCCc1oc2ccccc2c1C(=O)NCc1ccc2c(-c3ccc(Cl)cc3)c(OC(Cc3ccccc3)C(=O)O)ccc2c1 (stereo not shown) [Example 29, 2-[6-{[(2-Butyl-benzofuran-3-carbonyl)-amino]-methyl}-1-(4-chloro-phenyl)-naphthalen-2-yloxy]-3-phenyl-propionic acid]
15 | 44.9 | 38 | 91 | 138 to 142 |  | CCCCc1oc2ccccc2c1C(=O)NCc1ccc2c(-c3ccc(OC)cc3)c(OC(Cc3ccccc3)C(=O)[O-])ccc2c1.[Na+] (stereo not shown) [Example 30, Sodium; 2-[6-{[(2-Butyl-benzofuran-3-carbonyl)-amino]-methyl}-1-(4-methoxy-phenyl)-naphthalen-2-yloxy]-3-phenyl-propionate]
16 | 13.6 | 40 | 60 |  |  | CN(Cc1ccc2c(Br)c(OC(Cc3ccccc3)C(=O)O)ccc2c1)C(=O)c1ccc(Oc2cc(Cl)cc(Cl)c2)o1 (stereo not shown) [Example 64, 2-[1-Bromo-6-({[5-(3,5-dichloro-phenoxy)-furan-2-carbonyl]-methyl-amino}-methyl)-naphthalen-2-yloxy]-3-phenyl-propionic acid]
17 | 15.7 | 53 | 92 |  |  | CCCCc1oc2ccccc2c1C(=O)NCc1ccc2c(Br)c(OC(Cc3ccccc3)C(=O)O)ccc2c1 (stereo not shown) [Example 18, 2-(1-Bromo-6-{[(2-butyl-benzofuran-3-carbonyl)-amino]-methyl}-naphthalen-2-yloxy)-3-phenyl-propionic acid]
18 | 31.1 | 59 | 94 | 75 to 85 |  | CCCc1c(C(=O)N(C)Cc2ccc3c(Br)c(OCc4nnn[nH]4)ccc3c2)cnn1-c1ccccc1 [Example 33, 1-Phenyl-5-propyl-1H-pyrazole-4-carboxylic acid [5-bromo-6-(1H-tetrazol-5-ylmethoxy)-naphthalen-2-ylmethyl]-methyl-amide]
19 | 51 | 1 | 70 |  |  | O=C(O)COc1ccc2cc(CNC(=O)c3cnn(-c4ccc(Cl)cc4)c3C(F)(F)F)ccc2c1 [Example 14, [6-({[1-(4-Chloro-phenyl)-5-trifluoromethyl-1H-pyrazole-4-carbonyl]-amino}-methyl)-naphthalen-2-yloxy]-acetic acid]
20 | 13.5 | 59 | 66 |  |  | O=C(O)C(Cc1ccccc1)Oc1ccc2cc(CN(Cc3ccccc3)C(=O)c3ccc(Oc4cc(Cl)cc(Cl)c4)o3)ccc2c1Br (stereo not shown) [Example 67, 2-[6-({Benzyl-[5-(3,5-dichloro-phenoxy)-furan-2-carbonyl]-amino}-methyl)-1-bromo-naphthalen-2-yloxy]-3-phenyl-propionic acid]
21 | 5.08 | 36 | 54 | 235 to 238 |  | CCc1oc2ccccc2c1C(=O)NCc1ccc2c(Br)c(OCc3nnn[nH]3)ccc2c1 [Example 21, 2-Ethyl-benzofuran-3-carboxylic acid [5-bromo-6-(1H-tetrazol-5-yl methoxy)-naphthalen-2-ylmethyl]-amide]
